Patent US20250145665A1, “MACROCYCLIC PEPTIDES USEFUL AS MODULATORS OF TNF ALPHA” (Bristol-Myers Squibb Company, priority 2023, published 2025)
Starred links: 1 amine or outer side, 2 acyl side, 3 side chain; linkers in the order of their positions; H or OH if unused. Positions of bridges follow the written chain, without caps; N, C: chain ends. Non-standard residues stand in square brackets, D forms with d. Residues, ends and D or L forms follow the SMILES beside them. *: point of attachment. Bip(4'-NHCO-C6H4-3-CH2COOH) = N[C@@H](Cc1ccc(-c2ccc(NC(=O)c3cccc(CC(=O)O)c3)cc2)cc1)C(=O)O; Bip(4'-NHCO-C6H4-4-CH2COOH) = N[C@@H](Cc1ccc(-c2ccc(NC(=O)c3ccc(CC(=O)O)cc3)cc2)cc1)C(=O)O; dArg(Nω-CH2C6H4-3-CH2Gua) = N=C(N)NCc1cccc(CNC(=N)NCCC[C@@H](N)C(=O)O)c1; Bip(4'-NH) = O=C([C@H](Cc1ccc(-c2ccc(N[*:3])cc2)cc1)N[*:1])[*:2]; dArg(ω-(3-HO-benzyl)) = N=C(NCCC[C@@H](N)C(=O)O)NCc1cccc(O)c1; Indazole3carbonyl(1-CH2COOH) = O=C(O)Cn1nc(C(=O)*)c2ccccc21; Bip(4'-COOH) = N[C@@H](Cc1ccc(-c2ccc(C(=O)O)cc2)cc1)C(=O)O; Indole3carbonyl(1-CH2COOH) = O=C(O)Cn1cc(C(=O)*)c2ccccc21; Ala(imidazol-2-yl) = N[C@@H](Cc1ncc[nH]1)C(=O)O; Ala(morpholin-4-yl) = N[C@@H](CN1CCOCC1)C(=O)O; Benzoyl(3-OCH2COOH) = O=C(O)COc1cccc(C(=O)*)c1; Bip = N[C@@H](Cc1ccc(-c2ccccc2)cc1)C(=O)O; 2Pal = N[C@@H](Cc1ccccn1)C(=O)O; Tic = O=C(O)[C@@H]1Cc2ccccc2CN1; Cha = N[C@@H](CC1CCCCC1)C(=O)O; Sar = CNCC(=O)O

What follows are molecules tested against TNFα (Homo sapiens, UniProt P01375) (assay: TNF-Induced HEK-Blue Assay). Settings: not given.
Chain of TNFα (P01375 77-233 limits assumed): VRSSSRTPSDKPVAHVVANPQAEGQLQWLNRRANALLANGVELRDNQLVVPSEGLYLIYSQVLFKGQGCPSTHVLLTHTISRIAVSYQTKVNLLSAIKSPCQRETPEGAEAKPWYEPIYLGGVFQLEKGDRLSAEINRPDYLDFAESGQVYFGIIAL
Type: cell-based

| SMILES | IC50 |
| --- | --- |
| CC(C)C[C@@H]1NC(=O)[C@H](Cc2ncc[nH]2)NC(=O)[C@H](C(C)C)NC(=O)[C@@H]2CCCN2C(=O)[C@H](C(C)C)NC(=O)[C@@H](CCCNC(=N)NCc2cccc(CNC(=N)N)c2)NC(=O)[C@H](CC(=O)O)NC(=O)[C@H](Cc2ccccn2)NC(=O)CN(C)C(=O)[C@H](Cc2ccc(-c3ccc(NC(=O)c4nn(CC(=O)O)c5ccccc45)cc3)cc2)NC(=O)[C@H](Cc2ccc(-c3ccc(C(=O)O)cc3)cc2)NC(=O)[C@H](CC2CCCCC2)NC(=O)CSC[C@@H](C(=O)NCC(N)=O)NC1=O [Example 556] ({CH2CO}-[Cha][Bip(4'-COOH)][Bip(4'-NH)](Indazole3carbonyl(1-CH2COOH))[Sar][2Pal]D[dArg(Nω-CH2C6H4-3-CH2Gua)]VPV[Ala(imidazol-2-yl)]LCG-NH2; thioether N-13) | < 50 nM |
| CC(C)C[C@@H]1NC(=O)[C@H](Cc2ncc[nH]2)NC(=O)[C@H](C(C)C)NC(=O)[C@@H]2CCCN2C(=O)[C@H](C(C)C)NC(=O)[C@@H](CCCNC(=N)NCc2cccc(CNC(=N)N)c2)NC(=O)[C@H](CC(=O)O)NC(=O)[C@H](Cc2ccccn2)NC(=O)CN(C)C(=O)[C@H](Cc2ccc(-c3ccc(NC(=O)c4cn(CC(=O)O)c5ccccc45)cc3)cc2)NC(=O)[C@H](Cc2ccc(-c3ccc(C(=O)O)cc3)cc2)NC(=O)[C@H](CC2CCCCC2)NC(=O)CSC[C@@H](C(=O)NCC(N)=O)NC1=O [Example 557] ({CH2CO}-[Cha][Bip(4'-COOH)][Bip(4'-NH)](Indole3carbonyl(1-CH2COOH))[Sar][2Pal]D[dArg(Nω-CH2C6H4-3-CH2Gua)]VPV[Ala(imidazol-2-yl)]LCG-NH2; thioether N-13) | < 50 nM |
| CC[C@H](C)[C@@H]1NC(=O)[C@@H](CCCNC(=N)NCc2cccc(O)c2)NC(=O)[C@H](CC(=O)O)NC(=O)[C@H](Cc2cnc[nH]2)NC(=O)CN(C)C(=O)[C@H](Cc2ccc(-c3ccc(NC(=O)c4nn(CC(=O)O)c5ccccc45)cc3)cc2)NC(=O)[C@H](Cc2ccc(-c3ccc(C(=O)O)cc3)cc2)NC(=O)[C@H](CC2CCCCC2)NC(=O)CSC[C@@H](C(=O)NCC(N)=O)NC(=O)[C@H](CC(C)C)NC(=O)[C@H](Cc2ncc[nH]2)NC(=O)[C@H](C(C)C)NC(=O)[C@@H]2Cc3ccccc3CN2C1=O [Example 561] ({CH2CO}-[Cha][Bip(4'-COOH)][Bip(4'-NH)](Indazole3carbonyl(1-CH2COOH))[Sar]HD[dArg(ω-(3-HO-benzyl))]I[Tic]V[Ala(imidazol-2-yl)]LCG-NH2; thioether N-13) | < 50 nM |
| CC(C)C[C@@H]1NC(=O)[C@H](CCCNC(=N)N)NC(=O)[C@H](C(C)C)NC(=O)[C@@H]2CCCN2C(=O)[C@H](C(C)C)NC(=O)[C@@H](CCCNC(=N)NCc2cccc(O)c2)NC(=O)[C@H](CC(=O)O)NC(=O)[C@@H]2CCCN2C(=O)CN(C)C(=O)[C@H](Cc2ccc(-c3ccc(NC(=O)c4cn(CC(=O)O)c5ccccc45)cc3)cc2)NC(=O)[C@H](Cc2ccc(-c3ccccc3)cc2)NC(=O)[C@H](CN2CCOCC2)NC(=O)CSC[C@@H](C(=O)NCC(N)=O)NC1=O [Example 565] ({CH2CO}-[Ala(morpholin-4-yl)][Bip][Bip(4'-NH)](Indole3carbonyl(1-CH2COOH))[Sar]PD[dArg(ω-(3-HO-benzyl))]VPVRLCG-NH2; thioether N-13) | < 50 nM |

Same assay, conditions: HEK-Blue-CD40L cells, NF-kB-driven secreted alkaline phosphatase reporter; TNFα 0.5 ng/ml; 18 h; read-out: TNF induced HEK-Blue assay IC50 value

| IC50 | SMILES |
| --- | --- |
| 50 to 200 nM | CC(C)C[C@@H]1NC(=O)[C@H](Cc2ncc[nH]2)NC(=O)[C@H](C(C)C)NC(=O)[C@@H]2CCCN2C(=O)[C@H](C(C)C)NC(=O)[C@@H](CCCNC(=N)NCc2cccc(O)c2)NC(=O)[C@H](CC(=O)O)NC(=O)[C@H](Cc2ccccn2)NC(=O)CN(C)C(=O)[C@H](Cc2ccc(-c3ccc(NC(=O)c4cccc(CC(=O)O)c4)cc3)cc2)NC(=O)[C@H](Cc2ccc(-c3ccc(C(=O)O)cc3)cc2)NC(=O)[C@H](CC2CCCCC2)NC(=O)CSC[C@@H](C(=O)NCC(N)=O)NC1=O [Example 553] ({CH2CO}-[Cha][Bip(4'-COOH)][Bip(4'-NHCO-C6H4-3-CH2COOH)][Sar][2Pal]D[dArg(ω-(3-HO-benzyl))]VPV[Ala(imidazol-2-yl)]LCG-NH2; thioether N-13) |
| < 50 nM | CC(C)C[C@@H]1NC(=O)[C@H](Cc2ncc[nH]2)NC(=O)[C@H](C(C)C)NC(=O)[C@@H]2CCCN2C(=O)[C@H](C(C)C)NC(=O)[C@@H](CCCNC(=N)NCc2cccc(O)c2)NC(=O)[C@H](CC(=O)O)NC(=O)[C@H](Cc2ccccn2)NC(=O)CN(C)C(=O)[C@H](Cc2ccc(-c3ccc(NC(=O)c4ccc(CC(=O)O)cc4)cc3)cc2)NC(=O)[C@H](Cc2ccc(-c3ccc(C(=O)O)cc3)cc2)NC(=O)[C@H](CC2CCCCC2)NC(=O)CSC[C@@H](C(=O)NCC(N)=O)NC1=O [Example 554] ({CH2CO}-[Cha][Bip(4'-COOH)][Bip(4'-NHCO-C6H4-4-CH2COOH)][Sar][2Pal]D[dArg(ω-(3-HO-benzyl))]VPV[Ala(imidazol-2-yl)]LCG-NH2; thioether N-13) |
| < 50 nM | CC(C)C[C@@H]1NC(=O)[C@H](Cc2ncc[nH]2)NC(=O)[C@H](C(C)C)NC(=O)[C@@H]2CCCN2C(=O)[C@H](C(C)C)NC(=O)[C@@H](CCCNC(=N)NCc2cccc(CNC(=N)N)c2)NC(=O)[C@H](CC(=O)O)NC(=O)[C@H](Cc2ccccn2)NC(=O)CN(C)C(=O)[C@H](Cc2ccc(-c3ccc(NC(=O)c4ccc(CC(=O)O)cc4)cc3)cc2)NC(=O)[C@H](Cc2ccc(-c3ccc(C(=O)O)cc3)cc2)NC(=O)[C@H](CC2CCCCC2)NC(=O)CSC[C@@H](C(=O)NCC(N)=O)NC1=O [Example 559] ({CH2CO}-[Cha][Bip(4'-COOH)][Bip(4'-NHCO-C6H4-4-CH2COOH)][Sar][2Pal]D[dArg(Nω-CH2C6H4-3-CH2Gua)]VPV[Ala(imidazol-2-yl)]LCG-NH2; thioether N-13) |
| < 50 nM | CC(C)C[C@@H]1NC(=O)[C@H](Cc2ncc[nH]2)NC(=O)[C@H](C(C)C)NC(=O)[C@@H]2CCCN2C(=O)[C@H](C(C)C)NC(=O)[C@@H](CCCNC(=N)NCc2cccc(CNC(=N)N)c2)NC(=O)[C@H](CC(=O)O)NC(=O)[C@H](Cc2ccccn2)NC(=O)CN(C)C(=O)[C@H](Cc2ccc(-c3ccc(NC(=O)c4cccc(OCC(=O)O)c4)cc3)cc2)NC(=O)[C@H](Cc2ccc(-c3ccc(C(=O)O)cc3)cc2)NC(=O)[C@H](CC2CCCCC2)NC(=O)CSC[C@@H](C(=O)NCC(N)=O)NC1=O [Example 560] ({CH2CO}-[Cha][Bip(4'-COOH)][Bip(4'-NH)](Benzoyl(3-OCH2COOH))[Sar][2Pal]D[dArg(Nω-CH2C6H4-3-CH2Gua)]VPV[Ala(imidazol-2-yl)]LCG-NH2; thioether N-13) |
| < 50 nM | CC[C@H](C)[C@@H]1NC(=O)[C@@H](CCCNC(=N)NCc2cccc(O)c2)NC(=O)[C@H](CC(=O)O)NC(=O)[C@H](Cc2cnc[nH]2)NC(=O)CN(C)C(=O)[C@H](Cc2ccc(-c3ccc(NC(=O)c4ccc(CC(=O)O)cc4)cc3)cc2)NC(=O)[C@H](Cc2ccc(-c3ccc(C(=O)O)cc3)cc2)NC(=O)[C@H](CC2CCCCC2)NC(=O)CSC[C@@H](C(=O)NCC(N)=O)NC(=O)[C@H](CC(C)C)NC(=O)[C@H](Cc2ncc[nH]2)NC(=O)[C@H](C(C)C)NC(=O)[C@@H]2Cc3ccccc3CN2C1=O [Example 563] ({CH2CO}-[Cha][Bip(4'-COOH)][Bip(4'-NHCO-C6H4-4-CH2COOH)][Sar]HD[dArg(ω-(3-HO-benzyl))]I[Tic]V[Ala(imidazol-2-yl)]LCG-NH2; thioether N-13) |
| < 50 nM | CC[C@H](C)[C@@H]1NC(=O)[C@@H](CCCNC(=N)NCc2cccc(O)c2)NC(=O)[C@H](CC(=O)O)NC(=O)[C@H](Cc2cnc[nH]2)NC(=O)CN(C)C(=O)[C@H](Cc2ccc(-c3ccc(NC(=O)c4cccc(OCC(=O)O)c4)cc3)cc2)NC(=O)[C@H](Cc2ccc(-c3ccc(C(=O)O)cc3)cc2)NC(=O)[C@H](CC2CCCCC2)NC(=O)CSC[C@@H](C(=O)NCC(N)=O)NC(=O)[C@H](CC(C)C)NC(=O)[C@H](Cc2ncc[nH]2)NC(=O)[C@H](C(C)C)NC(=O)[C@@H]2Cc3ccccc3CN2C1=O [Example 564] ({CH2CO}-[Cha][Bip(4'-COOH)][Bip(4'-NH)](Benzoyl(3-OCH2COOH))[Sar]HD[dArg(ω-(3-HO-benzyl))]I[Tic]V[Ala(imidazol-2-yl)]LCG-NH2; thioether N-13) |

The remaining lines, values behind:

| SMILES | IC50 |
| --- | --- |
| CC(C)C[C@@H]1NC(=O)[C@H](Cc2ncc[nH]2)NC(=O)[C@H](C(C)C)NC(=O)[C@@H]2CCCN2C(=O)[C@H](C(C)C)NC(=O)[C@@H](CCCNC(=N)NCc2cccc(O)c2)NC(=O)[C@H](CC(=O)O)NC(=O)[C@H](Cc2ccccn2)NC(=O)CN(C)C(=O)[C@H](Cc2ccc(-c3ccc(NC(=O)c4cccc(OCC(=O)O)c4)cc3)cc2)NC(=O)[C@H](Cc2ccc(-c3ccc(C(=O)O)cc3)cc2)NC(=O)[C@H](CC2CCCCC2)NC(=O)CSC[C@@H](C(=O)NCC(N)=O)NC1=O [Example 555] ({CH2CO}-[Cha][Bip(4'-COOH)][Bip(4'-NH)](Benzoyl(3-OCH2COOH))[Sar][2Pal]D[dArg(ω-(3-HO-benzyl))]VPV[Ala(imidazol-2-yl)]LCG-NH2; thioether N-13) | < 50 nM |
| CC(C)C[C@@H]1NC(=O)[C@H](Cc2ncc[nH]2)NC(=O)[C@H](C(C)C)NC(=O)[C@@H]2CCCN2C(=O)[C@H](C(C)C)NC(=O)[C@@H](CCCNC(=N)NCc2cccc(CNC(=N)N)c2)NC(=O)[C@H](CC(=O)O)NC(=O)[C@H](Cc2ccccn2)NC(=O)CN(C)C(=O)[C@H](Cc2ccc(-c3ccc(NC(=O)c4cccc(CC(=O)O)c4)cc3)cc2)NC(=O)[C@H](Cc2ccc(-c3ccc(C(=O)O)cc3)cc2)NC(=O)[C@H](CC2CCCCC2)NC(=O)CSC[C@@H](C(=O)NCC(N)=O)NC1=O [Example 558] ({CH2CO}-[Cha][Bip(4'-COOH)][Bip(4'-NHCO-C6H4-3-CH2COOH)][Sar][2Pal]D[dArg(Nω-CH2C6H4-3-CH2Gua)]VPV[Ala(imidazol-2-yl)]LCG-NH2; thioether N-13) | < 50 nM |
| CC[C@H](C)[C@@H]1NC(=O)[C@@H](CCCNC(=N)NCc2cccc(O)c2)NC(=O)[C@H](CC(=O)O)NC(=O)[C@H](Cc2cnc[nH]2)NC(=O)CN(C)C(=O)[C@H](Cc2ccc(-c3ccc(NC(=O)c4cccc(CC(=O)O)c4)cc3)cc2)NC(=O)[C@H](Cc2ccc(-c3ccc(C(=O)O)cc3)cc2)NC(=O)[C@H](CC2CCCCC2)NC(=O)CSC[C@@H](C(=O)NCC(N)=O)NC(=O)[C@H](CC(C)C)NC(=O)[C@H](Cc2ncc[nH]2)NC(=O)[C@H](C(C)C)NC(=O)[C@@H]2Cc3ccccc3CN2C1=O [Example 562] ({CH2CO}-[Cha][Bip(4'-COOH)][Bip(4'-NHCO-C6H4-3-CH2COOH)][Sar]HD[dArg(ω-(3-HO-benzyl))]I[Tic]V[Ala(imidazol-2-yl)]LCG-NH2; thioether N-13) | 50 to 200 nM |
